The values that follow come from patent US20140364552A1, “AQUEOUS RESIN COMPOSITION COMPRISING FILM-FORMING AID, AND STEEL SHEET SURFACE TREATMENT AGENT CONTAINING THE SAME” (DIC Corporation, priority 2011, published 2014).

SMILES strings stand for the structures.

Series [1] is described as follows: Evaluating film-forming property (cracks in cast coating film). Format: physicochemical. The procedure: After drying for 24 hours, the film-forming property was evaluated by visual observation based on criteria below. When no crack occurred, the film-forming property was evaluated as “A”, when fine cracks slightly occurred, the film-forming property was evaluated as “B”, and when clear cracks occurred over the entire surface of the coating film, the film-forming property was evaluated as “C”.

A short description of series [2]: Evaluating alkali resistance of coating film on galvanized steel sheet. The series is classed as physicochemical.
Method: Each of the aqueous resin compositions immediately after preparation was applied on a galvanized steel sheet by using a film applicator so that an amount of application was 0.1 g/100 cm^2 and then dried at 80° C. for 30 seconds to form a test piece. Next, 0.5 mL of a 5% aqueous sodium hydroxyl solution was dropped on the test piece which was then allowed to stand for 30 minutes. After being allowed to stand, the appearance of a coating film in a portion where the liquid adhered was evaluated based on criteria below. When no change occurred in the appearance, alkali resistance was evaluated as “A”; when the coating film was discolored black or dissolved in an area of less than 10%, alkali resistance was evaluated as “B”; when the coating film was discolored black or dissolved in an area of 10% or more and less than 30%, alkali resistance was evaluated as “C”; and when the coating film was discolored black or dissolved in an area of 30% or more, alkali resistance was evaluated as “D”.
Series [3] can be described thus: Corrosion resistance, salt spray test JIS Z2371. Format: physicochemical.
Method: Each of the aqueous resin compositions immediately after preparation was applied on a galvanized steel sheet by using a film applicator so that an amount of application was 0.1 g/100 cm^2 and then dried at 80° C. for 30 seconds to form a test piece. According to a salt spray test method described in JIS Z2371, a 5 mass % aqueous sodium chloride solution was sprayed on the test piece at an ambient temperature of 35° C., and a rate of occurrence of white rust after 240 hours was measured and evaluated based on criteria below. In addition, a tape seal was attached to a portion where the aqueous resin composition was not applied (the end surfaces and back surface). When no white rust occurred, corrosion resistance was evaluated as “A”; when white rust occurred in an area of less than 5% of the whole coating area, corrosion resistance was evaluated as “B”; when white rust occurred in an area of 5% or more and less than 20% of the whole coating area, corrosion resistance was evaluated as “C”; and when white rust occurred in an area of 20% or more of the whole coating area, corrosion resistance was evaluated as “D”.
The conditions of series [4]: cited from earlier work.

`CN1CCCC1=O` [N-methyl-2-pyrrolidone]: the “film-forming property (in words)” value in series [1] is given as “excellent”. The “alkali resistance of coating film (in words)” value in series [2] is reported as “excellent”. Also, the “corrosion resistance of coating film (in words)” value in series [3] is “excellent”. In addition, the “toxicity (in words)” value in series [4] is “problem of toxicity”.
